These results are taken from PubChem BioAssay AID489024 (Sanford-Burnham Center for Chemical Genomics, 2010).

Activity calls are given as the source filed them.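 How the source made its calls: active means compounds whose mean EC50, the dose giving half the maximal reporter activation, is at or below a set limit; inactive means the rest.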 A value given as a limit tells only on which side of the number the result lay.

The target in this assay is CHO-CHOP luciferase reporter, UPR activation, luminescence. In words: activators of PERK-eIF2a-CHOP UPR arm, confirmation, CHO-CHOP cells, luciferase luminescence (AID 489024).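 Further: compounds added alone to reporter cells with no tunicamycin stress co-treatment.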
For orientation: EC50 means the concentration giving half of the maximal effect. For the compound `Cc1noc2ncnc(Sc3ccc(Cl)cc3)c12`, the EC50 is 7.1 µM.
Consider `COc1ccc(CNC[C@@H](CCCCN(C)Cc2ccc(OC)cc2)N2C[C@H](c3ccccc3)N(CCc3ccc(Cl)c(Cl)c3)C(=O)C2=O)cc1`, for which the EC50 was 7.73 µM.
The same measure for `O=C1Nc2ccc(Br)cc2/C1=N/N=C/C1=C(N2CCOCC2)C(=C\c2ccccc2)/CC1`: > 80 µM (inactive).
The figure for `O=C1/C(=C/c2ccc(N3CCOCC3)o2)SC(=Nc2ccccc2)N1CCc1c[nH]c2ccccc12` is 16.6 µM; for `O=C(/C(=N/N=C/c1ccc(O)c(O)c1)c1ccccc1)c1ccccc1` it is 7.97 µM.
The same measure for `Oc1ccc(-c2csc(Nc3ccccn3)n2)cc1O`: 3.7 µM.
As to `O=[N+]([O-])c1ccc(Sc2cccc3cccnc23)c([N+](=O)[O-])c1`, the EC50 was > 80 µM (inactive).
The figure for `Cn1cc(/C=C2\SC(=O)NC2=S)c2ccccc21` is > 80 µM (inactive).
The figure for `CC1=NOC(=O)/C1=C/c1ccc(-c2ccc(Cl)cc2)o1` is 9.98 µM.
The figure for `Cc1cc(NC(=O)c2cc(-c3ccccn3)nc3ccc(Br)cc23)no1` is > 80 µM (inactive).
`COc1ccc2cc1Oc1ccc(cc1)CC1c3c(cc(OC)c4c3Oc3cc5c(cc3O4)CCNC5C2)CCN1C` (stereo not drawn): the EC50 was > 80 µM (inactive).
Regarding `CC(C)N=c1scc(-c2cccs2)n1/N=C/c1ccc(O)c(O)c1O`, the EC50 is 11.6 µM.
The figure for `CC(C)N1CSC(=S)N(Cc2ccccc2)C1` is 10.6 µM.
The same measure for `Cc1[nH]c2c(C)cccc2c1CCNC(=O)c1ccc2c(c1[N+](=O)[O-])C(=O)c1ccccc1C2=O`: 6.46 µM; for `Oc1ccc(/C=N/Nc2ccc(C(F)(F)F)cn2)cc1O`: 5.89 µM.
Turning to `CC1=NN(c2cccc(C(=O)O)c2)C(=O)/C1=C\C=C/c1ccccc1`, the EC50 is 11.7 µM.
The same measure for `CC(C)c1ccc(N2C(=O)CC(Sc3nc4ccccc4o3)C2=O)cc1` (stereo not drawn): 15.9 µM; for `COc1cc(CN2CCN(c3cc(C)ccc3C)CC2)ccc1O`: 11.7 µM.
The figure for `O=C(N/N=C(\c1ccccc1)c1cccnc1)c1cccc(F)c1` is 9.74 µM.
The figure for `Cn1c(=O)c2c(SCC(=O)Nc3ccccc3F)nc(-c3ccccc3F)nc2n(C)c1=O` is 12.6 µM.
`COc1ccc(-c2csc3nc(-c4ccc(C)cc4)oc(=O)c23)cc1OC`: the EC50 is > 80 µM (inactive).
The same measure for `c1ccc(CSC2=NNC(c3ccccn3)S2)cc1` (stereo not drawn): 4.29 µM; for `O=C(NC1CCCC1)C(c1ccc(Cl)cc1)N(Cc1ccc(F)cc1)C(=O)CCl` (stereo not drawn): 8.34 µM; for `CCCCC(CC)CN=C(N)NC(N)=NCCCCCCN=C(N)NC(N)=NCC(CC)CCCC` (stereo not drawn): > 80 µM (inactive).
The same measure for `O=C(Nc1ccc(S(=O)(=O)N2CCCC2)cc1)c1ccc([N+](=O)[O-])o1`: 0.81 µM.
Take `Cc1cccc(OCCN2CSC(=S)N(C)C2)c1`: the EC50 is > 80 µM (inactive).
The figure for `COc1ccccc1NC(=O)c1cnc(SCC(=O)NCC2CCCO2)n(C)c1=O` (stereo not drawn) is 14.4 µM; for `O=S(=O)(CCSc1nc2ccccc2s1)c1nc2ccccc2s1` it is 11.6 µM.
On to `CN(C(=O)CSc1cc(C(=O)c2nccn2C)c2ccccc2n1)c1ccccc1`, for which the EC50 is 7.96 µM.
The same measure for `CC(C)c1ccc(N2C(=O)NC(=O)/C(=C\C=C\c3ccco3)C2=O)cc1`: 9.13 µM; for `CC1(C)CC(=O)C(=Cc2cn(-c3ccccc3)nc2-c2ccccc2)C(=O)C1`: “inactive”.
The figure for `Cc1ccc(C)c2sc(N3CCN(C(=O)c4ccc([N+](=O)[O-])o4)CC3)nc12` is 18.9 µM; for `S=C1SCN(CCN2CCOCC2)CN1Cc1ccccc1` it is 10.8 µM.
`O=C(Nc1nc2ccc(F)cc2s1)c1ccccn1`: the EC50 was 7.16 µM.
The same measure for `COc1cccc(N=Nc2ccc(O)c3ncccc23)c1`: 12.7 µM; for `O=[N+]([O-])c1ccc(N/N=C/c2cccc(O)c2O)c(S(=O)(=O)N2CCOCC2)c1`: 6.53 µM.
The same measure for `Oc1c(Cl)cc(CN2CCCCC2)c2cccnc12`: 15.2 µM.
The same measure for `CC(C)(C)C(=O)NC(=S)NNC(=O)c1ccc(-c2ccccc2)cc1`: 12.9 µM; for `CCN(CC)S(=O)(=O)c1ccc(N/N=C(\C)c2ccc3c(c2)OCO3)c([N+](=O)[O-])c1`: “inactive”; for `C/C(=N/NC(=O)c1ccc(C(C)(C)C)cc1)c1ccccn1`: 2.88 µM.
For the compound `Cc1noc2ncnc(Sc3ccc(Br)cc3)c12`, the EC50 was 9.31 µM.
The figure for `CN1CCN(Cc2cc(COCc3ccccc3)c3cccnc3c2O)CC1` is 12.8 µM.
The figure for `CN1/C(=C\C(=O)COC(=O)c2ccc(O)c(O)c2)C(C)(C)c2ccccc21` is 6.67 µM.
The figure for `S=C1SCN(Cc2ccccn2)CN1Cc1ccco1` is > 80 µM (inactive); for `CCOC(=O)c1c(C)oc2c1c(C(c1cccnc1)N1CCCCC1)c(O)c1ccccc12` (stereo not drawn) it is 15.2 µM; for `CCOc1cc(/C=N/NC(N)=S)cc(Br)c1OCc1ccccc1C` it is “inactive”.
On to `CC(=O)/C(=N\Nc1ccc(Cl)cc1Cl)Sc1cccc2cccnc12`, for which the EC50 was 3.26 µM.
The same measure for `CCOC(=O)c1cnc(-n2nc(C)cc2C)nc1Nc1ccc(N(C)C)cc1`: 16.7 µM.
The same measure for `CCCCCCCCCn1c2c(c(=N)c3c1CCC3)CCC2`: > 80 µM (inactive); for `COc1cccc2sc(Nc3nc(C)c(C(C)=O)s3)nc12`: 14.7 µM; for `O=C1/C(=C/c2ccccc2[N+](=O)[O-])COc2ccccc21`: 6.15 µM.
The same measure for `CC1(C)C=Cc2c(c3c(c4c(=O)c(-c5ccc(O)cc5)coc24)OC(C)(C)CC3)O1`: 14.5 µM; for `C/C(=N\NC(=O)c1cccc(Br)c1)c1ccccn1`: 2.36 µM.
For the compound `O=C(/C(=C/c1ccc(Cl)cc1)c1nc2ccccc2[nH]1)c1cccs1`, the EC50 is 4.6 µM.
In the case of `COc1ccc(C(=O)NCC(=O)N/N=C/c2ccc([N+](=O)[O-])o2)cc1OC`, the EC50 is > 80 µM (inactive).
The figure for `Cc1cc(C(=O)CCl)c(C)n1-c1cccc(S(=O)(=O)N2CCOCC2)c1` is 7.44 µM; for `O=C(Nc1ccc(O)c2c(=O)cc(-c3cccc(Cl)c3)oc12)c1ccccc1Cl` it is “inactive”; for `Cc1ccc(/C=C/C(=O)c2ccc([N+](=O)[O-])o2)cc1` it is 6.46 µM.
The figure for `Oc1ccc(-c2csc(-c3ccccc3)n2)cc1O` is 5.57 µM; for `Oc1ccc(CN2CCc3ccccc3C2)c2cccnc12` it is 13.8 µM.
The same measure for `O=C(COc1ccc(/C=N/NC(=O)c2cc3ccccc3o2)cc1Br)Nc1ccccc1`: 3.83 µM.
Turning to `COc1cc(/C=C(/C(=O)c2cccs2)c2nc3ccccc3[nH]2)cc(OC)c1O`, the EC50 was 9.71 µM.
With `Cc1ccc2c(C(=O)CCl)c(C)[nH]c2c1`, the EC50 was 11.2 µM.
As to `Cc1cc(C(=O)c2ccc(Cl)cc2)c(NC(=O)CCl)s1`, the EC50 is 16.4 µM.
The entry for `Oc1ccc(CN2CCN(c3ccccc3)CC2)c2cccnc12` is “inactive”; for `O=C(NCc1ccccc1Br)c1cccc2c1C(=O)c1ccc(-c3ccc(OC(F)(F)F)cc3)cc1S2(=O)=O` it is 12.7 µM.
Regarding `CCOC(=O)/C(=C\c1cccc(O)c1)c1nc2sc(C)c(C)c2c(=O)[nH]1`, the EC50 is 13 µM.
The figure for `Cn1c(-c2cccc(OCc3ccccc3)c2)nc2c1c(=O)[nH]c(=O)n2Cc1ccccc1` is 13.8 µM.
